Ends that are not written are not given here.

The subject of one assay is hMSCs. The assay can be described thus: Loss of stemness, STRO-1 immunostaining. In kind it is cell-based, human. To be noted: compound in solution in cell culture media. The procedure:
(§1) The cells were first fixed for 20 min with 4% paraformaldehyde/PBS at 4° C. After fixation, the cells were permeabilized in PBS containing 1% Triton X-100 for 15 min. Runx2, Osterix, Stro-1, Vinculin, Phalloidin, Osteopontin, Sox2, Sox9 antibodies were visualized by treating the cells with 1% (v/v) specific monoclonal antibodies for 1 hour at 37° C. Then the samples were incubated with Alexa Fluor® 568 or 647 (F(ab′)2 fragment of IgG(H+L)) during 30 min at room temperature. The cell nuclei were counterstained in 20 ng/mL DAPI for 10 min at room temperature.
For this type of quantification the freeware image analysis ImageJ® software was used. The raw image was first converted to an 8-bit file, and then the unsharp mask feature was used (settings 1:0.2) to remove the image background (rolling ball radius 10). After smoothing, the resulting image, which appears similar to the original photomicrograph but with minimal background, was then converted to a binary image by setting a threshold. Threshold values were determined empirically by selecting a setting, which gave the most accurate binary image for a subset of randomly selected photomicrographs. The cell area was determined by manual delineation on raw fluorescent images. Total contact area and mean contact area per cell were calculated by “analyse particules” in ImageJ®. A minimum of […] per condition were analyzed. Stro-1 expression was determined using this procedure.
hMSCs were cultured on conventional cell culture plastic plates with and without the presence in the cell culture media of different GFR-binding compounds as defined hereins (SEQ ID NO: 39 to 45) in solution. […] This was probed by Stro-1 immunostaining after cell fixation as described in the Methods section. The quantification of Stro-1 positive contact numbers and areas was performed as described in the Methods section. A minimum of 30 cells per condition were analyzed. One should note that it is commonly admitted that the expression of STRO-1 in a cell is indicative of a cell that is in a substantially non-differentiated state and the decrease of its expression of at least about 20% is indicative of a cell that has started a processus of differentiation but which may not result in the differentiation of the cell. A decrease of more than 50% would be indicative of the presence of a significant shift towards a differentiated state. A decrease of more than 70% would be indicative of the presence of a very important shift towards a differentiated state. A sustained decrease (e.g. for at least 96 h) of more than 50% or 70% would be indicative of the presence of an even more important shift towards a differentiated state.
Likewise, hMSCs were cultured on conventional cell culture plastic plates with and without the presence in the cell culture media of different GFR-binding compounds as defined herein (SEQ ID NO: 1581 to 1606) in solution. […] This strong decrease was also confirmed after 96 h.
In the case of “1581 (GGGGGGGGGDENEKVVNDEGLESVPEDLSSLSVLFFDENEKVV; also: cyclic, closure not given here) [compound 1581]”, the “STRO-1 Expression (%) after 48 h” value came to 33%.

As to “1582 (GGGGGGGGGDDSSNVIRVPSTSSVPTGQSAISTLYLDDSSNVI; also: cyclic, closure not given here) [compound 1582]”, the “STRO-1 Expression (%) after 48 h” value stood at 29%.

Consider “1583 (GGGGGGGGGDDSSNVIRVPSTSSAPTKMNAISMLYFDENEKVV; also: cyclic, closure not given here) [compound 1583]”, for which the “STRO-1 Expression (%) after 48 h” value came out at 34%.

In the case of “1584 (GGGGGGGGGDENEKVVGIPEPSSAPVDLKPLSTLYVDENEKVV; also: cyclic, closure not given here) [compound 1584]”, the “STRO-1 Expression (%) after 48 h” value came out at 31%.

With “1585 (AAAAAAAAADENEKVVAASKASSVPQEEEPLPMVYYDAANNVV; also: cyclic, closure not given here) [compound 1585]”, the “STRO-1 Expression (%) after 48 h” value came out at 27%.

With “1586 (GGGGGGGGGDDSSNVIKIPKASSVPTGGSNITVQIMDDSSNVI; also: cyclic, closure not given here) [compound 1586]”, the “STRO-1 Expression (%) after 48 h” value was determined as 31%.

For “1587 (AAAAAAAAADENEKVVAASKASSSRVELRSVKIAKVDDSSNVI; also: cyclic, closure not given here) [compound 1587]”, the “STRO-1 Expression (%) after 48 h” value amounted to 33%.

In the case of “1588 (GGGGGGGGGDENEKVVKIPKASSTQVRLRPVQIRKIDAANNVV; also: cyclic, closure not given here) [compound 1588]”, the “STRO-1 Expression (%) after 48 h” value is 30%.

On to “1589 (GGGGGGGGGDDSSNVISTPPTSSSRVQLSAISMLYLDDSSNVI; also: cyclic, closure not given here) [compound 1589]”, for which the “STRO-1 Expression (%) after 48 h” value came out at 22%.

Regarding “1590 (GGGGGGGGGDENEKVVRVPSTSSTQVKMSAISMLYLDENEKVV; also: cyclic, closure not given here) [compound 1590]”, the “STRO-1 Expression (%) after 48 h” value turned out to be 23%.

As to “1591 (AAAAAAAAADAANNVVKIPKASSSRVRLSSLSTLFFDAANNVV; also: cyclic, closure not given here) [compound 1591]”, the “STRO-1 Expression (%) after 48 h” value amounted to 21%.

On to “1592 (GGGGGGGGGDDSSNVIAASKASSTPTDLNAISTLYFDDSSNVI; also: cyclic, closure not given here) [compound 1592]”, for which the “STRO-1 Expression (%) after 48 h” value is 30%.

In the case of “1593 (GGGGGGGGGDENEKVVRVPSTSSTQVDLNAISVLYFDENEKVV; also: cyclic, closure not given here) [compound 1593]”, the “STRO-1 Expression (%) after 48 h” value stood at 32%.

Take “1594 (AAAAAAAAADAANNVVGIPEPSSVSQELSATSMLYYDAANNVV; also: cyclic, closure not given here) [compound 1594]”: the “STRO-1 Expression (%) after 48 h” value came out at 31%.

Regarding “1595 (GGGGGGGGGDDSSNVIGIPEPSSAPTRLEPISMLYLDENEKVV; also: cyclic, closure not given here) [compound 1595]”, the “STRO-1 Expression (%) after 48 h” value is listed as 27%.

As for “1596 (GGGGGGGGGDENEKVVKIPKASSVSQQLEPISTLYLDENEKVV; also: cyclic, closure not given here) [compound 1596]”, the “STRO-1 Expression (%) after 48 h” value is on record as 19%.

In the case of “1597 (GGGGGGGGGDENEKVVSTPPTSSVPTEVSPINTLYFDENEKVV; also: cyclic, closure not given here) [compound 1597]”, the “STRO-1 Expression (%) after 48 h” value turned out to be 38%.

Take “1598 (AAAAAAAAADENEKVVKIPKASSVPTKMKPLSVLYVDDSSNVI; also: cyclic, closure not given here) [compound 1598]”: the “STRO-1 Expression (%) after 48 h” value was determined as 37%.

In the case of “1599 (GGGGGGGGGDDSSNVISTPPTSSVSQKMKPLSILYVDDSSNVI; also: cyclic, closure not given here) [compound 1599]”, the “STRO-1 Expression (%) after 48 h” value was determined as 35%.

As to “1600 (GGGGGGGGGFDNDENVVRVPSTSSVPEKMEPLTMLYYFDNDENVV; also: cyclic, closure not given here) [compound 1600]”, the “STRO-1 Expression (%) after 48 h” value is listed as 29%.

In the case of “1601 (GGGGGGGGGFDNDENVVSTPPTSSTPTKMSNITTQIMFDNDENVV; also: cyclic, closure not given here) [compound 1601]”, the “STRO-1 Expression (%) after 48 h” value was found to be 41%.

As to “1602 (AAAAAAAAADENEKVVRVPSTSSVPAEESNITVQIMDDSSNVI; also: cyclic, closure not given here) [compound 1602]”, the “STRO-1 Expression (%) after 48 h” value was found to be 42%.

For “1603 (GGGGGGGGGFDNDENVVAASKASSVPQRLRSVKVAKVFDNDENVV; also: cyclic, closure not given here) [compound 1603]”, the “STRO-1 Expression (%) after 48 h” value turned out to be 34%.

In the case of “1604 (AAAAAAAAADAANNVVKIPKASSTQVRLRSVKTAKVDAANNVV; also: cyclic, closure not given here) [compound 1604]”, the “STRO-1 Expression (%) after 48 h” value is reported as 35%.

Turning to “1605 (AAAAAAAAADENEKVVAASKASSVPEKMRPVQTRKIDDSSNVI; also: cyclic, closure not given here) [compound 1605]”, the “STRO-1 Expression (%) after 48 h” value was found to be 30%.

Consider “1606 (GGGGGGGGGFDNDENVVGIPEPSSAPVDMRPVQIRKIFDNDENVV; also: cyclic, closure not given here) [compound 1606]”, for which the “STRO-1 Expression (%) after 48 h” value was found to be 43%.

The test system of the next assay is osteoblast progenitors. The assay can be described thus: Osteogenic differentiation of osteoblast progenitors on peptide-coated materials (Osteopontin staining, Runx2 Q-PCR). In kind it is cell-based. The following applies: 48 hours on coated apatite ceramics or type-I collagen sponge. The protocol: as §1
Total RNA was extracted by using the RNeasy total RNA kit (Qiagen®) according to the manufacturer's instructions. Purified total RNA was used as a template in order to make cDNA by a reverse transcription reaction (Gibco BrI®) with random primers (Invitrogen®). The cDNA was then used as a template for a real-time PCR amplification in the presence of SYBR green reagents (Bio-Rad®) by using a thermocycler (iCycler, Biorad®). Data were analyzed with the iCycler IQ™® software and compared by the ΔΔCt method. Briefly, the mean Ct value of the target gene was normalized to its averaged Ct values of the housekeeping gene (HPRT) to give a ΔCt value, which was then normalized to a control sample to obtain a ΔΔCt value. The results were obtained from two series of experiments performed in a triplicate.
The effect of these GFR-binding compounds as defined herein (SEQ ID NO: 19 and 20) on the differentiation of osteoblast progenitors was evaluated. These osteoblast progenitors were seeded onto the apatite ceramics or on type-I collagen sponge that were both coated with osteogenic peptides. […] This was seen from Osteopentin immunofluorescence staining after cell fixation as described in the Methods section (FIG. 7).
An increase in the Runx2 gene expression after 24 hours of culture (FIG. 8a) was observed by using Quantitative Real Time Polymerase Chain Reaction as described in the Methods section.
With “SEQ ID NO: 20: osteogenic cyclic GFR-binding compound of the sequence listing; sequence not printed (GTPGPSAISTLYLGGGGGGG; also: cyclic, ring type and places not given here)”, the “differentiation into mature osteoblasts” value was “differentiated into mature osteoblasts”.

The assay is the same for the next values; noted with them: versus native type-I collagen sponge or native apatite ceramics.
On to “SEQ ID NO: 20: osteogenic cyclic GFR-binding compound of the sequence listing; sequence not printed (GTPGPSAISTLYLGGGGGGG; also: cyclic, ring type and places not given here)”, for which the “production of extracellular matrix proteins such as Osteopontin (OPN)” value is recorded as “produced extensive amounts of extracellular matrix proteins such as Osteopontin (OPN)”.

Another assay has as its system Hair Follicle Stem Cells. The assay can be described thus: Loss of quiescence and activation of hair follicle stem cells (Sox2, BMP-6). In kind it is cell-based, Mouse.
Details: not given
The procedure: Isolated Hair Follicle Stem Cells were cultured with and without GFR-binding compounds as defined herein (SEQ ID NO: 29 and 30). An increase in the Sox2 protein expression was observed illustrating the activation of these stem cells (FIG. 13a). In parallel, a decrease in the BMP-6 release in the cell culture medium was observed (FIG. 13b).
Consider “SEQ ID NO: 29: cyclic GFR-binding compound activating hair follicle stem cells; sequence not printed (DENKNSSLSILFFDENKNGGGGGG; also: cyclic, ring type and places not given here)”, for which the “BMP-6 release in the cell culture medium” value was “decrease” and the Sox2 protein expression entry was “increase”.

As for “SEQ ID NO: 30: cyclic GFR-binding compound activating hair follicle stem cells; sequence not printed (DENEKSSLSILFFDENEKGGGGGG; also: cyclic, ring type and places not given here)”, the “BMP-6 release in the cell culture medium” value is listed as “decrease” and the Sox2 protein expression entry was “increase”.

The values above are taken from US20190225651A1, “COMPOUNDS FOR INDUCING TISSUE FORMATION AND USES THEREOF” (HISTIDE AG, priority 2015, published 2019).
